Where two headings read alike, the source gives them in different places.
Columns and labels:
[1] = Crosslinking of polyethylene (Table I, xylene solvent extraction); details: for % Crosslinking: 30 minutes; for efficiency as crosslinking agent: in words, see Table I
Description: A mixture of the desired polymeric material and 0.01 mole of the difunctional coupled compound is blended together on a standard roll mill, such as used in the rubber industry. […]
The slabs are permitted to cool down and mature at room temperature for 24 hours. The mature slabs were then cut into dumbell shaped samples and tested for tensile strength on an Instron Tensile Tester, following ASTM procedure as described in D412-61T "Tension Testing of Vulcanized Rubber" or the crosslinking in the case of polyethylene is determined by the solvent extraction procedure. In addition to the polymer-peroxide mixture, the crosslinkable mixture, may contain co-agents such as sulfur, promoters, fillers, and reinforcing materials. Desirable fillers are carbon black, titanium dioxide, calcium silicate and alkaline earth metal carbonates.
In Table I the crosslinking ability of the coupled compounds of our invention in polyethylene are compared to a hydroxy-containing peroxide and to difunctional peroxides. Tables II, III, and IV show the versatility of the product of our invention in urethane rubber, ethylene-propylene rubber and silicone rubber.
The polyethylene used for this test was a low density polyethylene
Bakelite DYNH-1, having the following physical properties:
The crosslinking test was carried out at 340° and 375° F.
(1) The percentage crosslinking was determined by extraction of the
crosslinked sample with refluxing xylene. In all cases the polyethylene
charge was 100% extractable before crosslinking.
(2) Based on number of active oxygens per mole.

[2] = Half-life of coupled and uncoupled hydroxy-peroxides in benzene; format: physicochemical; details: for t1/2: benzene, 0.1 molar, 100000 µM; for half-life relative to the hydroxy containing peroxide precursors: in words, see Example XVI
Excerpt: Half-Life Comparisons of Coupled and Uncoupled Hydroxy-Peroxides (Carried out in Benzene at 0.1 molar concentrations)

[3] = Volatility and thermal stability of peroxides (in words); format: physicochemical
Excerpt: Some of the desirable properties that a peroxide has to have to be useful for crosslinking polyethylene are: low volatility, high thermal stability, and good efficiency with respect to its active oxygen content.
The volatility and the thermal stability are necessary requisites, since the peroxide has to tolerate the high temperatures of the milling operation, which is a necessary step to incorporate the peroxide with the polymer before the crosslinking process. If the peroxide is too volatile (as in the case of di-t-butyl peroxide) there would not be any peroxide left for the crosslinking process at the end of the milling step. If the peroxide is not volatile, but its thermal stability is low, a premature decomposition of the peroxide will take place during the milling step, which results in a premature crosslinking of the polymer. If this happens, the polymer cannot be shaped or formed any further since the thermoplastic polymer has become thermoset too soon.

[4] = Initiation of vinyl monomer (styrene) polymerization
Description: This example illustrates the use of coupled peroxides of present disclosures as initiators of vinyl monomer polymerization. Compound [B] (from Example V) at a concentration of 5 × 10^-4 moles per deciliter of styrene, polymerized styrene at 100° C. at a rate of 6.20 × 10^-3 moles per liter per minute. When no initiator is present, the thermal polymerization of styrene at 100° C. proceeds at a rate of 2.82 × 10^-3 moles per liter per minute. Compound [A] (from Examples I, II, and III) at a concentration of 5 × 10^-4 moles per diciliter of styrene polymerized styrene 1.65 faster at 115° C. than the thermal polymerization rate when no polymerization initiator is present.

[5] = S.P.I. exotherm, curing an unsaturated polyester-styrene resin (Table V); details: 1% concentration; for Cure Time / Gel Time: 115° C.; for Peak: exotherm at 115° C.
Description: An unsaturated polyester resin was made by reacting maleic anhydride (1.0 mole), phthalic anhydride (1.0 mole), and propylene glycol (2.2 mole) until an acid number of 45-50 was obtained. To this was added hydroquinone at a 0.013% concentration. Seven parts of this unsaturated polyester was diluted with 3 parts of monomeric styrene to obtain a homogeneous blend having a viscosity of 13.08 poise and a specific gravity of 1.14. To 20 g. of this blend was added the 0.2 g. of the desired coupled peroxide and the resulting composition placed in a constant temperature bath at 115° C.
The internal temperature was recorded as function of time. The following results were obtained with some of the coupled compounds (Table V):
S.P.I. EXOTHERM AT 115° C. AND 1% CONCENTRATION
IN POLYESTER RESIN PREPARED IN EXAMPLE VIII

[6] = in words; milling step; cited from earlier work

Row | SMILES | % Crosslinking ([1]; 340° F., 0.010 molar equivs.) [%] | % Crosslinking ([1]; 340° F., 0.015 molar equivs.) [%] | % Crosslinking ([1]; 375° F., 0.010 molar equivs.) [%] | % Crosslinking ([1]; 375° F., 0.015 molar equivs.) [%] | efficiency as crosslinking agent [1] | Cure Time [5] [min] | Gel Time [5] [min] | Peak [5] [° F] | other results
1 | CC(C)(C)OOC(C)(C)CCC(C)(C)OOC(C)(C)C [2,5-dimethyl-2,5-di(t-butylperoxy)-hexane] | 85.9 | 89.3 | 84.5 | 88.0 | not as efficient in utilizing their active oxygen content as the difunctional peroxide of our invention |  |  |  | 
2 | CC(C)(C)OOC(C)(C)C#CC(C)(C)OOC(C)(C)C [2,5-dimethyl-2,5-di(t-butylperoxy)-hexyne-3] | 81.8 | 86.0 | 84.9 | 87.7 | not as efficient in utilizing their active oxygen content as the difunctional peroxide of our invention |  |  |  | 
3 | CC(O)CC(C)(C)OOC(C)(C)C (stereo not drawn) [2-Methyl-2-(t-butylperoxy)-4-pentanol] |  | 78.4 |  | 75.4 | poor |  |  |  | t1/2 ([2]; 115° C.): 13.6 h; thermal stability [3]: good; volatility [3]: low
4 | CC(CC(C)(C)OOC(C)(C)C)OC(=O)OC(C)CC(C)(C)OOC(C)(C)C (stereo not drawn) [Di[1,3-dimethyl-3-(t-butylperoxy)butyl] carbonate] | 89.3 |  | 89.7 |  |  | 11.1 | 9.5 | 455 | styrene polymerization, faster than the thermal polymerization rate when no initiator is present ([4]; 115° C., 5 × 10^-4 moles per diciliter of styrene): 1.65; t1/2 ([2]; 115° C.): 26.8 h; half-life relative to the hydroxy containing peroxide precursors [2]: almost double
5 | CC(CC(C)(C)OOC(C)(C)C)OC(=O)CCC(=O)OC(C)CC(C)(C)OOC(C)(C)C (stereo not drawn) [Di[1,3-dimethyl-3-(t-butylperoxy)butyl]succinate] | 88.9 |  | 89.2 |  |  |  |  |  | 
6 | CC(C)(C)OOC(=O)CCOC(=O)OCCC(=O)OOC(C)(C)C [Di[2-(t-butylperoxycarbonyl)ethyl]carbonate] |  |  |  |  |  | 8.5 | 7.1 | 450 | rate of styrene polymerization ([4]; 100° C., 5 × 10^-4 moles per deciliter of styrene): 6.20 × 10^-3 moles per liter per minute; t1/2 ([2]; 100° C.): 30.7 h; half-life relative to the hydroxy containing peroxide precursors [2]: almost double
7 | CC(CC(C)(C)OOC(C)(C)C)OC(=O)OCCOC(=O)OC(C)CC(C)(C)OOC(C)(C)C (stereo not drawn) [Ethylene Bis[1,3-dimethyl-3-(t-butylperoxy)-butyl carbonate]] | 87.9 |  | 87.4 |  |  | 12.8 | 10.8 | 450 | 
8 | CC(C)(C)OOC(C)(C)C [di-t-butyl peroxide] |  |  |  |  |  |  |  |  | volatility [6]: too volatile
9 | CC(C)(C)OOC(=O)CCO [t-butylperoxy 3-hydroxypropionate, reference compound] |  |  |  |  |  |  |  |  | t1/2 ([2]; 100° C.): 13.0 h
